Here are results for 31 compounds from patent publication US9944645B2, “Imidazotriazines and imidazopyrimidines as kinase inhibitors” (Incyte Holdings Corporation, priority 2006, dated 2018).

The test has as its target c-Met kinase (h-Met; histidine-tagged c-Met catalytic domain fusion protein) (Homo sapiens (Human), UniProt P08581). As to the kind of experiment: In Vitro c-Met Kinase Enzyme Assays. It is filed as biochemical. The settings on record: phosphorylation of poly Glu-Tyr, 5 μM ATP, 25 minutes at 30° C. The essentials: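 His-tagged c-Met catalytic domain reacted 25 min at 30° C, within the linear initial-rate range. Phosphotyrosine detected by ELISA with peroxidase-labeled anti-phospho-tyrosine antibody and TMB, OD read at 450 nm (540 nm correction); IC50 from curve fit.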

c-Met kinase (h-Met; histidine-tagged c-Met catalytic domain fusion protein), sequence (P08581 1078-1345): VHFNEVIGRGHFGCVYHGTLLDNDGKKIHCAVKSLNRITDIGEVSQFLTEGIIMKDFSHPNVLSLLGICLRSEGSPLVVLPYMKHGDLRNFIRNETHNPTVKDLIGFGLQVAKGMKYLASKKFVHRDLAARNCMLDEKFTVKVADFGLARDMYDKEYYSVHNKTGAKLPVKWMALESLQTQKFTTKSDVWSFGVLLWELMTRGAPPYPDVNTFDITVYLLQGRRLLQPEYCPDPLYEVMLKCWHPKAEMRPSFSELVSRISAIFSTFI

`CNC(=O)[C@@H](NC(=O)c1ccc(-c2cnc3ncc(Cc4ccc5ncccc5c4)n3n2)cc1F)C(C)(C)C` [Example 131, N-(1S)-2,2-Dimethyl-1-[(methylamino)carbonyl]propyl-2-fluoro-4-[7-(quinolin-6-ylmethyl)imidazo[1,2-b][1,2,4]triazin-2-yl]benzamide] returned an IC50 of under 0.5 µM.
In turn, `CN(C)C(=O)[C@@H](NC(=O)c1ccc(-c2cnc3ncc(Cc4ccc5ncccc5c4)n3n2)cc1F)C(C)(C)C` [Example 132, N-(1S)-1-[(Dimethylamino)carbonyl]-2,2-dimethylpropyl-2-fluoro-4-[7-(quinolin-6-ylmethyl)imidazo[1,2-b][1,2,4]triazin-2-yl]benzamide] showed an IC50 of under 0.5 µM.
With `CC(C)(C)[C@H](NC(=O)c1ccc(-c2cnc3ncc(Cc4ccc5ncccc5c4)n3n2)cc1F)C(=O)N1CCC1` [Example 133, N-[(1S)-1-(Azetidin-1-ylcarbonyl)-2,2-dimethylpropyl]-2-fluoro-4-[7-(quinolin-6-ylmethyl)imidazo[1,2-b][1,2,4]triazin-2-yl]benzamide], the IC50 is under 0.5 µM.
In the case of `CC(C)C[C@H](NC(=O)c1ccc(-c2cnc3ncc(Cc4ccc5ncccc5c4)n3n2)cc1F)C(=O)N(C)C` [Example 134, N-{(1S)-1-[(Dimethylamino)carbonyl]-3-methylbutyl}-2-fluoro-4-[7-(quinolin-6-ylmethyl)imidazo[1,2-b][1,2,4]triazin-2-yl]benzamide], the IC50 is under 0.5 µM.
Take `CNC(=O)[C@@H](CC(C)C)NC(=O)c1ccc(-c2cnc3ncc(Cc4ccc5ncccc5c4)n3n2)cc1F` [Example 135, 2-Fluoro-N-{(1R)-3-methyl-1-[(methylamino)carbonyl]butyl}-4-[7-(quinolin-6-ylmethyl)imidazo[1,2-b][1,2,4]triazin-2-yl]benzamide]: the IC50 was under 0.5 µM.
For `CC(C)C[C@@H](NC(=O)c1ccc(-c2cnc3ncc(Cc4ccc5ncccc5c4)n3n2)cc1F)C(=O)N(C)C` [Example 136, N-{(1R)-1-[(Dimethylamino)carbonyl]-3-methylbutyl}-2-fluoro-4-[7-(quinolin-6-ylmethyl)imidazo[1,2-b][1,2,4]triazin-2-yl]benzamide] the value was under 0.5 µM.
As to `CC(C)C[C@@H](NC(=O)c1ccc(-c2cnc3ncc(Cc4ccc5ncccc5c4)n3n2)cc1F)C(=O)N1CCC1` [Example 137, N-[(1R)-1-(Azetidin-1-ylcarbonyl)-3-methylbutyl]-2-fluoro-4-[7-(quinolin-6-ylmethyl)imidazo[1,2-b][1,2,4]triazin-2-yl]benzamide], the IC50 is under 0.5 µM.
On to `N#CCCn1cc(-c2cnc3ncc(Cc4ccc5ncccc5c4)n3n2)cn1` [Example 138, 3-{4-[7-(Quinolin-6-ylmethyl)imidazo[1,2-b][1,2,4]triazin-2-yl]-1H-pyrazol-1-yl}propanenitrile], for which the IC50 is under 0.5 µM.
For `N#CCn1cc(-c2cnc3ncc(Cc4ccc5ncccc5c4)n3n2)cn1` [Example 139, 4-[7-(Quinolin-6-ylmethyl)imidazo[1,2-b][1,2,4]triazin-2-yl]-1H-pyrazol-1-ylacetonitrile] the value was under 0.5 µM.
For `NC(=O)Cn1cc(-c2cnc3ncc(Cc4ccc5ncccc5c4)n3n2)cn1` [Example 140, 2-{4-[7-(Quinolin-6-ylmethyl)imidazo[1,2-b][1,2,4]triazin-2-yl]-1H-pyrazol-1-yl}acetamide] the value was under 0.5 µM; for `COC(=O)N1CCC(n2cc(-c3cnc4ncc(Cc5ccc6ncccc6c5)n4n3)cn2)CC1` [Example 141, Methyl 4-{4-[7-(quinolin-6-ylmethyl)imidazo[1,2-b][1,2,4]triazin-2-yl]-1H-pyrazol-1-yl}piperidine-1-carboxylate], under 0.5 µM; for `O=C(N[C@H]1CCC[C@@H]1O)c1ccc(-c2cnc3ncc(Cc4ccc5ncccc5c4)n3n2)cc1F` [Example 142, 2-Fluoro-N-[(1S,2S)-2-hydroxycyclopentyl]-4-[7-(quinolin-6-ylmethyl)imidazo[1,2-b][1,2,4]triazin-2-yl]benzamide], under 0.5 µM.
Compound `O=C(NCCO)c1ccc(-c2cnc3ncc(Cc4ccc5ncccc5c4)n3n2)cc1F` [Example 143, 2-Fluoro-N-(2-hydroxyethyl)-4-[7-(quinolin-6-ylmethyl)imidazo[1,2-b][1,2,4]triazin-2-yl]benzamide] displayed an IC50 of under 0.5 µM.
For `COCC1(NC(=O)c2ccc(-c3cnc4ncc(Cc5ccc6ncccc6c5)n4n3)cc2F)CCC1` [Example 144, 2-Fluoro-N-[1-(methoxymethyl)cyclobutyl]-4-[7-(quinolin-6-ylmethyl)imidazo[1,2-b][1,2,4]triazin-2-yl]benzamide] the value was under 0.5 µM; for `COCC1(NC(=O)c2ccc(-c3cnc4ncc(Cc5ccc6ncccc6c5)n4n3)cc2F)CCOCC1` [Example 145, 2-Fluoro-N-[4-(methoxymethyl)tetrahydro-2H-pyran-4-yl]-4-[7-(quinolin-6-ylmethyl)imidazo[1,2-b][1,2,4]triazin-2-yl]benzamide], under 0.5 µM; for `O=C(NCC1CC1)c1ccc(-c2cnc3ncc(Cc4ccc5ncccc5c4)n3n2)cc1F` [Example 146, N-(Cyclopropylmethyl)-2-fluoro-4-[7-(quinolin-6-ylmethyl)imidazo[1,2-b][1,2,4]triazin-2-yl]benzamide], under 0.5 µM.
Compound `O=C(NCC1CCOCC1)c1ccc(-c2cnc3ncc(Cc4ccc5ncccc5c4)n3n2)cc1F` [Example 147, 2-Fluoro-4-[7-(quinolin-6-ylmethyl)imidazo[1,2-b][1,2,4]triazin-2-yl]-N-(tetrahydro-2H-pyran-4-ylmethyl)benzamide] showed a half-maximal inhibitory concentration (IC50) of under 0.5 µM.
`CN(C)CCNC(=O)c1ccc(-c2cnc3ncc(Cc4ccc5ncccc5c4)n3n2)cc1F` [Example 148, N-[2-(Dimethylamino)ethyl]-2-fluoro-4-[7-(quinolin-6-ylmethyl)imidazo[1,2-b][1,2,4]triazin-2-yl]benzamide] showed an IC50 of under 0.5 µM.
In turn, `O=C(NCCN1CCCCC1)c1ccc(-c2cnc3ncc(Cc4ccc5ncccc5c4)n3n2)cc1F` [Example 149, 2-Fluoro-N-(2-piperidin-1-ylethyl)-4-[7-(quinolin-6-ylmethyl)imidazo[1,2-b][1,2,4]triazin-2-yl]benzamide] showed an IC50 of under 0.5 µM.
Consider `CN1CCCC1CCNC(=O)c1ccc(-c2cnc3ncc(Cc4ccc5ncccc5c4)n3n2)cc1F` (stereo not shown) [Example 150, 2-Fluoro-N-[2-(1-methylpyrrolidin-2-yl)ethyl]-4-[7-(quinolin-6-ylmethyl)imidazo[1,2-b][1,2,4]triazin-2-yl]benzamide], for which the IC50 is under 0.5 µM.
For `O=C(NCc1ccccn1)c1ccc(-c2cnc3ncc(Cc4ccc5ncccc5c4)n3n2)cc1F` [Example 151, 2-Fluoro-N-(pyridin-2-ylmethyl)-4-[7-(quinolin-6-ylmethyl)imidazo[1,2-b][1,2,4]triazin-2-yl]benzamide] the value was under 0.5 µM.
The figure for `O=C(NCc1cccnc1)c1ccc(-c2cnc3ncc(Cc4ccc5ncccc5c4)n3n2)cc1F` [Example 152, 2-Fluoro-N-(pyridin-3-ylmethyl)-4-[7-(quinolin-6-ylmethyl)imidazo[1,2-b][1,2,4]triazin-2-yl]benzamide] is under 0.5 µM; for `O=C(NCc1ccncc1)c1ccc(-c2cnc3ncc(Cc4ccc5ncccc5c4)n3n2)cc1F` [Example 153, 2-Fluoro-N-(pyridin-4-ylmethyl)-4-[7-(quinolin-6-ylmethyl)imidazo[1,2-b][1,2,4]triazin-2-yl]benzamide] it is under 0.5 µM; for `O=C(NCCc1ccccn1)c1ccc(-c2cnc3ncc(Cc4ccc5ncccc5c4)n3n2)cc1F` [Example 154, 2-Fluoro-N-(2-pyridin-2-ylethyl)-4-[7-(quinolin-6-ylmethyl)imidazo[1,2-b][1,2,4]triazin-2-yl]benzamide] it is under 0.5 µM.
With `CC(NC(=O)c1ccc(-c2cnc3ncc(Cc4ccc5ncccc5c4)n3n2)cc1F)c1cccnc1` (stereo not shown) [Example 155, 2-Fluoro-N-(1-pyridin-3-ylethyl)-4-[7-(quinolin-6-ylmethyl)imidazo[1,2-b][1,2,4]triazin-2-yl]benzamide], the IC50 was under 0.5 µM.
The figure for `CC(NC(=O)c1ccc(-c2cnc3ncc(Cc4ccc5ncccc5c4)n3n2)cc1F)c1ccncc1` (stereo not shown) [Example 156, 2-Fluoro-N-(1-pyridin-4-ylethyl)-4-[7-(quinolin-6-ylmethyl)imidazo[1,2-b][1,2,4]triazin-2-yl]benzamide] is under 0.5 µM; for `CC(C)(C)[C@@H](CO)NC(=O)c1ccc(-c2cnc3ncc(Cc4ccc5ncccc5c4)n3n2)cc1F` [Example 157, 2-Fluoro-N-[(1S)-1-(hydroxymethyl)-2,2-dimethylpropyl]-4-[7-(quinolin-6-ylmethyl)imidazo[1,2-b][1,2,4]triazin-2-yl]benzamide] it is under 0.5 µM.
Consider `O=C(NC1(CO)CCCC1)c1ccc(-c2cnc3ncc(Cc4ccc5ncccc5c4)n3n2)cc1F` [Example 158, 2-Fluoro-N-[1-(hydroxymethyl)cyclopentyl]-4-[7-(quinolin-6-ylmethyl)imidazo[1,2-b][1,2,4]triazin-2-yl]benzamide], for which the IC50 was under 0.5 µM.
The figure for `CC(c1ccc2ncccc2c1)c1cnc2ncc(-c3ccc(C(=O)N[C@H]4CC[C@H](O)CC4)c(F)c3)nn12` (stereo partly drawn) [Example 159, 2-Fluoro-N-(trans-4-hydroxycyclohexyl)-4-[7-(1-quinolin-6-ylethyl)imidazo[1,2-b][1,2,4]triazin-2-yl]benzamide] is under 0.5 µM; for `CNC(=O)c1ccc(-c2cnc3ncc(C(C)c4ccc5ncccc5c4)n3n2)cc1F` (stereo not shown) [Example 160, 2-Fluoro-N-methyl-4-[7-(1-quinolin-6-ylethyl)imidazo[1,2-b][1,2,4]triazin-2-yl]benzamide] it is under 0.5 µM.
The figure for `CC(c1ccc2ncccc2c1)c1cnc2ncc(-c3ccc(C(=O)NC4CC4)c(F)c3)nn12` (stereo not shown) [Example 161, N-Cyclopropyl-2-fluoro-4-[7-(1-quinolin-6-ylethyl)imidazo[1,2-b][1,2,4]triazin-2-yl]benzamide] is under 0.5 µM.
